Measured values: patent publication US12371428B2 (Exelixis, Inc., priority 2019, dated 2025)
Structures can show the parent of a compound that is named as a salt.

Legend:
[1] = target: Human MET (residues 956-1390) (Homo sapiens (Human), UniProt P08581); experiment: Human Met kinase assay, HTRF KinEase (Example D-2); format: biochemical; conditions: protocol of Example D-2 (other compounds); read-out: c-Met IC50
How it was run: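 IC50 values come from a 4-parameter logistic fit of the […] fluorescence ratio, set between DMSO (100%) and reference compound at 1 μM (0%). Reactions held MET 956-1390 at 0.1 ng/well, ATP at Km, biotinylated peptide, 5 mM MgCl2, 1 mM MnCl2, 1 mM DTT and 3% DMSO, and ran 40 min at room temperature before streptavidin-XL665/Eu-antibody detection.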

[2] = target: KDR (phospho-KDR, VEGF165-stimulated HUVEC cells) (Homo sapiens (Human), UniProt P35968); experiment: KDR autophosphorylation ELISA in HUVEC cells (Example G); format: cell-based; conditions: cellular activity; KDR autophosphorylation ELISA in HUVEC cells
KDR (phospho-KDR, VEGF165-stimulated HUVEC cells), sequence (P35968 20-1356): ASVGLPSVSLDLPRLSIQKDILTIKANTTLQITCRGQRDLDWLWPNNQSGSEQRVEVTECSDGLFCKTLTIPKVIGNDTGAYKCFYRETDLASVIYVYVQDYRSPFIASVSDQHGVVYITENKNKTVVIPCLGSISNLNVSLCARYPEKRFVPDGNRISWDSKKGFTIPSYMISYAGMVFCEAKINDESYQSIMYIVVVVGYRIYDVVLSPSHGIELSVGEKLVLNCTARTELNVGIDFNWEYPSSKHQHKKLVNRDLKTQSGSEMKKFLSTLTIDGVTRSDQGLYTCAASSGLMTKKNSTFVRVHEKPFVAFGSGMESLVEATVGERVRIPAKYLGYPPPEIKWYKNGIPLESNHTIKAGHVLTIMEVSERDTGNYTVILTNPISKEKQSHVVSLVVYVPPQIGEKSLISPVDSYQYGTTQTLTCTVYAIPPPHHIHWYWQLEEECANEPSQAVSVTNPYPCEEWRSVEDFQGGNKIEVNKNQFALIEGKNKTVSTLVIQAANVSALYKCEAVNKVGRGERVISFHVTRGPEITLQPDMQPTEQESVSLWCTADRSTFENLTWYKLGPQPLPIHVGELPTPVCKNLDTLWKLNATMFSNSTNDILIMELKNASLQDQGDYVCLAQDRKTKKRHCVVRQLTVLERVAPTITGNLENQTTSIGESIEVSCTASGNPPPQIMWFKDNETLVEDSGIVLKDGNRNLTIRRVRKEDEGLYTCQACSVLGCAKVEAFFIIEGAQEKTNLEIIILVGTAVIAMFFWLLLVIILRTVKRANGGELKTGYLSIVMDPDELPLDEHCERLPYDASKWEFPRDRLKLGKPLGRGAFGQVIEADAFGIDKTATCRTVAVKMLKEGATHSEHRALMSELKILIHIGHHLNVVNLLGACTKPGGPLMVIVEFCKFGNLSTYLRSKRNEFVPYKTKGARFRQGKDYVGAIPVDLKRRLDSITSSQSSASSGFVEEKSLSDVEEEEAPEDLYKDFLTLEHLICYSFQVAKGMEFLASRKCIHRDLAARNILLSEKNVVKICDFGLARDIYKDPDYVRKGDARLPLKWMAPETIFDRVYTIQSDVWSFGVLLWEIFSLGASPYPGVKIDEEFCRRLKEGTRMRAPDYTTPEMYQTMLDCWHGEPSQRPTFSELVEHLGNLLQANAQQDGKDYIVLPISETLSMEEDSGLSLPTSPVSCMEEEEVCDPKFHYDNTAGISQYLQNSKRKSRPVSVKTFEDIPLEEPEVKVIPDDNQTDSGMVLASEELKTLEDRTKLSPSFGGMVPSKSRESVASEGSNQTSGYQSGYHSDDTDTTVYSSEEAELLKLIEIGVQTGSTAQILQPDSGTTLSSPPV
How it was run: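 IC50 values derive from nonlinear curve fitting of phospho-KDR levels measured by ELISA and interpolated from a phosphoprotein standard. Beforehand, starved HUVECs received compound (0.3% DMSO vehicle) for one hour and were activated with VEGF165 at 100 ng/mL for 5 min.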

Human MET (residues 956-1390), sequence (P08581 956-1390): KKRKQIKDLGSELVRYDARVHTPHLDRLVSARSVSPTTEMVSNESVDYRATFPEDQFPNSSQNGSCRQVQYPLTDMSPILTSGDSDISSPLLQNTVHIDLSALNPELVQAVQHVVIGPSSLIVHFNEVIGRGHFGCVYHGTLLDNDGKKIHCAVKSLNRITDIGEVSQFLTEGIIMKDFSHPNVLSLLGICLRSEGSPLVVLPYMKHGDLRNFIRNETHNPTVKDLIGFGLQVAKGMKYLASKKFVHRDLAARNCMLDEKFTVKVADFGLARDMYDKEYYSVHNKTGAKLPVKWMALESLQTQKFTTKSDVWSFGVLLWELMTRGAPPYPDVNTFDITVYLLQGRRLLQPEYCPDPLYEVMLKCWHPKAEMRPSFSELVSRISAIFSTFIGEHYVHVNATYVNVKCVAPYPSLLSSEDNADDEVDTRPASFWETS

IC50 [1] [nM]	IC50 [2] [nM]	Structure (SMILES)
< 100	> 300	COc1cc2nccc(Oc3ccc(NC(=O)C4=C5CCCN5CC(c5ccc(F)cc5)C4=O)cc3F)c2nc1OC (racemic) [Compound 373, N-[4-[(6,7-dimethoxy-1,5-naphthyridin-4-yl)oxy]-3-fluorophenyl]-6-(4-fluorophenyl)-7-oxo-2,3,5,6-tetrahydro-1H-indolizine-8-carboxamide]
< 100	> 300	COc1cc2nccc(Oc3ccc(NC(=O)C4=C5CCCN5CC(c5ccc(F)cc5)C4=O)cc3F)c2nc1OC (single isomer, unassigned; enantiomer 1) [Compound 374, N-[4-[(6,7-dimethoxy-1,5-naphthyridin-4-yl)oxy]-3-fluorophenyl]-6-(4-fluorophenyl)-7-oxo-2,3,5,6-tetrahydro-1H-indolizine-8-carboxamide, enantiomer 1]
< 100	< 100	COc1cc2nccc(Oc3ccc(NC(=O)c4cn(C)cc(-c5ccc(Cl)cc5)c4=O)cc3F)c2nc1OC [Compound 38, 5-(4-Chlorophenyl)-N-[4-[(6,7-dimethoxy-1,5-naphthyridin-4-yl)oxy]-3-fluorophenyl]-1-methyl-4-oxopyridine-3-carboxamide hydrochloride]
< 100	< 100	COc1cc2nccc(Oc3ccc(NC(=O)c4cn(C)cc(-c5ccccc5)c4=O)cc3)c2nc1OC [Compound 39, N-[4-[(6,7-Dimethoxy-1,5-naphthyridin-4-yl)oxy]phenyl]-1-methyl-4-oxo-5-phenylpyridine-3-carboxamide hydrochloride]
< 100	< 100	COc1cnc2c(Oc3ccc(NC(=O)c4cn(C)cc(-c5ccccc5)c4=O)cc3F)ccnc2c1 [Compound 40, N-[3-Fluoro-4-[(7-methoxy-1,5-naphthyridin-4-yl)oxy]phenyl]-1-methyl-4-oxo-5-phenylpyridine-3-carboxamide hydrochloride]
< 100	> 300	COc1cnc2c(Oc3ccc(NC(=O)c4ncc(C)n(-c5ccc(F)cc5)c4=O)cc3)ccnc2c1 [Compound 263, 4-(4-Fluorophenyl)-N-[4-[(7-methoxy-1,5-naphthyridin-4-yl)oxy]phenyl]-5-methyl-3-oxopyrazine-2-carboxamide]
< 100	> 300	COc1ccc2nccc(Oc3ccc(NC(=O)c4ncc(C)n(-c5ccc(F)cc5)c4=O)cc3F)c2n1 [Compound 264, N-[3-Fluoro-4-[(6-methoxy-1,5-naphthyridin-4-yl)oxy]phenyl]-4-(4-fluorophenyl)-5-methyl-3-oxopyrazine-2-carboxamide]
< 100	100 to 300	COc1cnc2c(Oc3ccc(NC(=O)c4cnc(C)n(-c5ccc(F)cc5)c4=O)cc3F)ccnc2c1 [Compound 265, N-[3-Fluoro-4-[(7-methoxy-1,5-naphthyridin-4-yl)oxy]phenyl]-1-(4-fluorophenyl)-2-methyl-6-oxopyrimidine-5-carboxamide]
< 100	> 300	COc1cnc2c(Oc3ccc(NC(=O)c4cnc(C)n(-c5ccc(F)cc5)c4=O)cc3)ccnc2c1 [Compound 266, 1-(4-Fluorophenyl)-N-[4-[(7-methoxy-1,5-naphthyridin-4-yl)oxy]phenyl]-2-methyl-6-oxopyrimidine-5-carboxamide]
< 100	> 300	COc1cc2nccc(Oc3ccc(NC(=O)c4cn(C)cc(-c5c(C)cc(F)cc5C)c4=O)cc3F)c2nc1OC [Compound 268, N-[4-[(6,7-Dimethoxy-1,5-naphthyridin-4-yl)oxy]-3-fluorophenyl]-5-(4-fluoro-2,6-dimethylphenyl)-1-methyl-4-oxopyridine-3-carboxamide]
< 100	> 300	COCc1c(-c2ccc(F)cc2)c(=O)c(C(=O)Nc2ccc(Oc3ccnc4cc(OC)c(OC)nc34)c(F)c2)cn1C [Compound 269, N-[4-[(6,7-Dimethoxy-1,5-naphthyridin-4-yl)oxy]-3-fluorophenyl]-5-(4-fluorophenyl)-6-(methoxymethyl)-1-methyl-4-oxopyridine-3-carboxamide]
< 100	> 300	COCc1c(-c2ccc(F)cc2)c(=O)c(C(=O)Nc2ccc(Oc3ccnc4cc(OC)cnc34)c(F)c2)cn1C [Compound 270, N-[3-Fluoro-4-[(7-methoxy-1,5-naphthyridin-4-yl)oxy]phenyl]-5-(4-fluorophenyl)-6-(methoxymethyl)-1-methyl-4-oxopyridine-3-carboxamide]
< 100	100 to 300	CCn1cc(C(=O)Nc2ccc(Oc3ccnc4cc(OC)c(OC)nc34)c(F)c2)c(=O)c(-c2ccc(F)cc2)c1CO [Compound 271, N-[4-[(6,7-Dimethoxy-1,5-naphthyridin-4-yl)oxy]-3-fluorophenyl]-1-ethyl-5-(4-fluorophenyl)-6-(hydroxymethyl)-4-oxopyridine-3-carboxamide]
< 100	> 300	CCn1cc(C(=O)Nc2ccc(Oc3ccnc4cc(OC)c(OC)nc34)cc2)c(=O)c(-c2ccc(F)cc2)c1CO [Compound 272, N-[4-[(6,7-Dimethoxy-1,5-naphthyridin-4-yl)oxy]phenyl]-1-ethyl-5-(4-fluorophenyl)-6-(hydroxymethyl)-4-oxopyridine-3-carboxamide]
< 100	> 300	CCn1cc(C(=O)Nc2ccc(Oc3ccnc4cc(OC)cnc34)c(F)c2)c(=O)c(-c2ccc(F)cc2)c1CO [Compound 273, 1-Ethyl-N-[3-fluoro-4-[(7-methoxy-1,5-naphthyridin-4-yl)oxy]phenyl]-5-(4-fluorophenyl)-6-(hydroxymethyl)-4-oxopyridine-3-carboxamide]
< 100	> 300	CCn1cc(C(=O)Nc2ccc(Oc3ccnc4cc(OC)cnc34)cc2)c(=O)c(-c2ccc(F)cc2)c1CO [Compound 274, 1-Ethyl-5-(4-fluorophenyl)-6-(hydroxymethyl)-N-[4-[(7-methoxy-1,5-naphthyridin-4-yl)oxy]phenyl]-4-oxopyridine-3-carboxamide]
100 to 300	< 100	Cc1ccc(C(=O)Nc2ccc(Oc3ccnc4cc(OCc5ccccc5)cnc34)c(F)c2)c(=O)n1-c1ccc(F)cc1 [Compound 275, 1-(4-Fluorophenyl)-N-[3-fluoro-4-[(7-phenylmethoxy-1,5-naphthyridin-4-yl)oxy]phenyl]-6-methyl-2-oxopyridine-3-carboxamide]
100 to 300	< 100	COc1ccc2nccc(Oc3ccc(NC(=O)c4ccc(C)n(-c5ccc(F)cc5C)c4=O)cc3)c2n1 [Compound 276, 1-(4-Fluoro-2-methylphenyl)-N-[4-[(6-methoxy-1,5-naphthyridin-4-yl)oxy]phenyl]-6-methyl-2-oxopyridine-3-carboxamide]
< 100	< 100	Cc1nc(C)c(-c2ccc(F)cc2)c(O)c1C(=O)Nc1ccc(Oc2ccnc3cc(OCc4ccccc4)cnc23)c(F)c1 [Compound 277, 5-(4-Fluorophenyl)-N-[3-fluoro-4-[(7-phenylmethoxy-1,5-naphthyridin-4-yl)oxy]phenyl]-4-hydroxy-2,6-dimethylpyridine-3-carboxamide]
< 100	< 100	Cc1nc(C)n(-c2ccc(F)cc2)c(=O)c1C(=O)Nc1ccc(Oc2ccnc3cc(OCc4ccccc4)cnc23)c(F)c1 [Compound 278, 1-(4-Fluorophenyl)-N-[3-fluoro-4-[(7-phenylmethoxy-1,5-naphthyridin-4-yl)oxy]phenyl]-2,4-dimethyl-6-oxopyrimidine-5-carboxamide]
< 100	< 100	COc1cc2nccc(Oc3ccc(NC(=O)c4c(C)cc(C)n(-c5ccc(F)cc5)c4=O)cc3F)c2nc1OC [Compound 279, N-[4-[(6,7-Dimethoxy-1,5-naphthyridin-4-yl)oxy]-3-fluorophenyl]-1-(4-fluorophenyl)-4,6-dimethyl-2-oxopyridine-3-carboxamide]
< 100	< 100	COc1cnc2c(Oc3ccc(NC(=O)c4c(C)cc(C)n(-c5ccc(F)cc5)c4=O)cc3F)ccnc2c1 [Compound 280, N-[3-Fluoro-4-[(7-methoxy-1,5-naphthyridin-4-yl)oxy]phenyl]-1-(4-fluorophenyl)-4,6-dimethyl-2-oxopyridine-3-carboxamide]
< 100	< 100	COc1ccc2nccc(Oc3ccc(NC(=O)c4c(C)cc(C)n(-c5ccc(F)cc5)c4=O)cc3F)c2n1 [Compound 281, N-[3-Fluoro-4-[(6-methoxy-1,5-naphthyridin-4-yl)oxy]phenyl]-1-(4-fluorophenyl)-4,6-dimethyl-2-oxopyridine-3-carboxamide]
< 100	< 100	COc1cc2nccc(Oc3ccc(NC(=O)c4cn(C)c(CO)c(-c5ccc(F)cc5C)c4=O)cc3F)c2nc1OC [Compound 282, N-[4-[(6,7-Dimethoxy-1,5-naphthyridin-4-yl)oxy]-3-fluorophenyl]-5-(4-fluoro-2-methylphenyl)-6-(hydroxymethyl)-1-methyl-4-oxopyridine-3-carboxamide]
< 100	100 to 300	CCn1cc(C(=O)Nc2ccc(Oc3ccnc4cc(OC)c(OC)nc34)c(F)c2)c(=O)c(-c2ccc(F)cc2C)c1CO [Compound 283, N-[4-[(6,7-Dimethoxy-1,5-naphthyridin-4-yl)oxy]-3-fluorophenyl]-1-ethyl-5-(4-fluoro-2-methylphenyl)-6-(hydroxymethyl)-4-oxopyridine-3-carboxamide]
